Test results: patent US20220289728A1, “MODULATORS OF TREX1” (Constellation Pharmaceuticals, Inc., priority 2019, published 2022)
pEC50, pIC50: −log10 of the molar value.

Legend:
full length human TREX1 = biological target: T1, full length human TREX1 (Homo sapiens, UniProt Q9NSU2); experiment: TREX1 Biochemical Assay (fluorescence, dsDNA substrate degradation); settings: 150 pM TREX1, 60 nM dsDNA substrate, 25 minutes at room temperature
T1 construct: N-terminally His-Tev tagged full length human TREX1; His-TEV (His tag with TEV site) (N); made in house; host or cells: E. coli
T1 sequence (Q9NSU2 1-314): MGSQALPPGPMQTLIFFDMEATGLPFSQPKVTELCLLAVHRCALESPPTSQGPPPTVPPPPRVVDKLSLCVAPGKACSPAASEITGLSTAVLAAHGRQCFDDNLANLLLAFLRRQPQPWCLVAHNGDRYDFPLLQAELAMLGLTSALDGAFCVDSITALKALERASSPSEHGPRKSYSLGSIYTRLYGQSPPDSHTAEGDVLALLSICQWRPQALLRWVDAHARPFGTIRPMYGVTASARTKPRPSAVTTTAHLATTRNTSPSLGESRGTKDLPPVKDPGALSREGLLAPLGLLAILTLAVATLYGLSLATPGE
Protocol: Degradation of the dsDNA liberates free fluorophore to produce a fluorescent signal. Specifically, 7.5 μL of N-terminally His-Tev tagged full length human TREX1 (expressed in E. coli and purified in house) in reaction buffer (50 mM Tris (pH 7.4), 150 mM NaCl, 2 mM DTT, 0.1 mg/mL BSA, 0.01% (v/v) Tween-20 and 100 mM MgCl2) was added to a 384-well Black ProxiPlate Plus (Perkin Elmer) which already contained compound (150 nL) at varying concentrations as a 10 point dose-response in DMSO. To this was added 7.5 μL of dsDNA substrate (Strand A: 5′ TEX615/GCT AGG CAG 3′; Strand B: 5′ CTG CCT AGC/IAbRQSp (Integrated DNA Technologies)) in reaction buffer. Final concentrations were 150 pM TREX1, 60 nM dsDNA substrate in reaction buffer with 1.0% DMSO (v/v). After 25 minutes at room temperature, reactions were quenched by the addition of 5 μL of stop buffer (same as reaction buffer plus 200 mM EDTA). Final concentrations in the quenched reaction were 112.5 pM TREX1, 45 nM DNA and 50 mM EDTA in a volume of 20 μL. After a 5-minute incubation at room temperature, plates were read in a laser sourced Envision (Perkin-Elmer), measuring fluorescence at 615 nm following excitation w/570 nm light. IC50 values were calculated by comparing the measured fluorescence at 615 nm ratio relative to control wells pre-quenched w/stop buffer (100% inhibition) and no inhibitor (0% inhibition) controls as using non-linear least square four parameter fits and either Genedata or GraphPad Prism (GraphPad Software, Inc.).

[1] = biological target: T2, human TREX2 (residues M44-A279) (Homo sapiens, UniProt Q9BQ50); experiment: TREX2 Biochemical Assay (fluorescence, dsDNA substrate degradation); settings: 2.5 nM TREX2, 60 nM dsDNA substrate, 25 minutes at room temperature
T2 construct: human TREX2 (residues M44-A279, expressed in E. coli); His-TEV (His tag with TEV site) (N); made in house; host or cells: E. coli
T2 sequence (Q9BQ50 44-279 isoform Q9BQ50-1): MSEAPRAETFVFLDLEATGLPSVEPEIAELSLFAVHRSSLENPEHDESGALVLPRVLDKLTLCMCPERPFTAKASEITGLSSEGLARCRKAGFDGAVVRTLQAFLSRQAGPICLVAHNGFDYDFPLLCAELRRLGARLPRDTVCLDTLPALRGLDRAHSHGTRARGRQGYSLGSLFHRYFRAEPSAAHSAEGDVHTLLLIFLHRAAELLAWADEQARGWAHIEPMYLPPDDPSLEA
Protocol: Degradation of the dsDNA liberates free fluorophore to produce a fluorescent signal. Specifically, 7.5 μL of N-terminally His-Tev tagged human TREX2 (residues M44-A279, expressed in E. coli and purified in house) in reaction buffer (50 mM Tris (pH 7.4), 150 mM NaCl, 2 mM DTT, 0.1 mg/mL BSA, 0.01% (v/v) Tween-20 and 100 mM MgCl2) was added to a 384-well Black ProxiPlate Plus (Perkin Elmer) which already contained compound (150 nL) at varying concentrations as a 10 point dose-response in DMSO. To this was added 7.5 μL of dsDNA substrate (Strand A: 5′ TEX615/GCT AGG CAG 3′; Strand B: 5′ CTG CCT AGC/IAbRQSp (IDT)) in reaction buffer. Final concentrations were 2.5 nM TREX2, 60 nM dsDNA substrate in reaction buffer with 1.0% DMSO (v/v). After 25 minutes at room temperature, reactions were quenched by the addition of 5 μL of stop buffer (same as reaction buffer plus 200 mM EDTA). Final concentrations in the quenched reaction mixture were […] TREX2, 45 nM DNA and 50 mM EDTA in a volume of 20 μL. After a 5-minute incubation at room temperature, plates were read in a laser sourced Envision (Perkin-Elmer), measuring fluorescence at 615 nm following excitation w/570 nm light. IC50 values were calculated by comparing the measured fluorescence at 615 nm ratio relative to control wells pre-quenched w/stop buffer (100% inhibition) and no inhibitor (0% inhibition) controls as using non-linear least square four parameter fits and either Genedata or GraphPad Prism (GraphPad Software, Inc.).

HCT116 dual cells = experiment: HCT116 Cell Assay (Lucia luciferase reporter of Type I interferon induction); format: cell-based, human; settings: pBR322/BstNI DNA transfection, Lucia luciferase at 48 h, relative to 10 uM compound 39
Text: HCT116 dual cells (Invivogen, San Diego, Calif., USA) are derived from the human HCT116 colorectal carcinoma cell line. Cells have been selected for the stable integration of SEAP and Luciferase reporter genes, which expression is under the control of 5 tandem response elements for NF-KB/AP1 and STAT1/STAT2, respectively. The cell line was used to monitor Type I interferon induction and subsequent signaling by measuring the activity of the Lucia luciferase secreted in the culture medium.
HCT116 cells were plated in 96-well plate(s) at 40,000 cells/well in 100 uL DMEM supplemented with 10% FBS and 25 mM Hepes (pH 7.2-7.5). After overnight settling, cells were treated with TREX1i for 4 h (maximum DMSO fraction was 0.1%) before 1.25 ug/mL pBR322/BstNI restriction digest (New England Biolabs, Ipswich, Mass., USA) was transfected with Lipofectamine LTX (ThermoFisher, Grand Island, N.Y., USA), according to product manual recommendations. Briefly, Lipofectamine LTX (0.4 uL/well) was diluted in OptiMEM (5 uL/well). pBR322/BstNI (100 ng/well) was diluted in OptiMEM (5 uL/well) before Plus reagent (0.1 uL/100 ng DNA) was added. After 5 min incubation at room temperature, the DNA mixture was mixed dropwise with the diluted Lipofectamine LTX. After an additional 10 min incubation, the transfection mix (10 uL/well) was added to the cells. Cells were maintained at 37° C. for 48 h before monitoring the Lucia Luciferase activity from the cell culture medium. EC50 values were calculated by comparing the measured luminescence relative to 10 uM compound 39 (100% inhibition) and no inhibitor (0% inhibition) controls using non-linear least-squares four parameter fits in either Genedata Screener or GraphPad Prism (GraphPad Software, Inc.).

[2] = Homo sapiens, HCT-116, 4 h pre-treatment

pIC50 (full length human TREX1)	pIC50 [1]	pEC50 (HCT116 dual cells; [2])	pEC50 (HCT116 dual cells; 4 h pre-treatment)	SMILES
> 7.00	> 6.00	5.00 to 6.00	–	CN(Cc1c(Cl)cccc1Cl)c1nc(C(=O)Nc2cnoc2)c(O)c(=O)n1C [Example 4]
6.00 to 7.00	5.00 to 6.00	4.00 to 5.00	–	CN(Cc1ccccn1)c1nc(C(=O)Nc2cnoc2)c(O)c(=O)n1C [Example 22]
> 7.00	> 6.00	> 6.00	–	CN(c1nc(C(=O)Nc2cnoc2)c(O)c(=O)n1C)C(c1ccccc1)c1ccccc1C#N (single isomer, unassigned) [Example 85]
> 7.00	5.00 to 6.00	4.00 to 5.00	–	CN(c1nc(C(=O)Nc2cnoc2)c(O)c(=O)n1C)C(C)(c1ccccc1)c1ccccc1 [Example 52]
> 7.00	5.00 to 6.00	5.00 to 6.00	–	CN(Cc1cccc2c1cnn2C)c1nc(C(=O)Nc2cnoc2)c(O)c(=O)n1C [Example 31]
> 7.00	> 6.00	> 6.00	–	CN(c1nc(C(=O)Nc2cnoc2)c(O)c(=O)n1C)C(c1ccccc1)c1ccccc1 [Example 30]
> 7.00	5.00 to 6.00	5.00 to 6.00	–	CN(Cc1ccccc1Cl)c1nc(C(=O)Nc2cnoc2)c(O)c(=O)n1C [Example 74]
6.00 to 7.00	5.00 to 6.00	–	–	CN(c1nc(C(=O)Nc2cnoc2)c(O)c(=O)n1C)C1CCCCC1 [Example 72]
> 7.00	> 6.00	> 6.00	–	CN(c1nc(C(=O)Nc2cnoc2)c(O)c(=O)n1C)C(c1ccccc1)c1ccccc1C(F)(F)F (single isomer, unassigned) [Example 83]
> 7.00	> 6.00	5.00 to 6.00	–	Cc1ccc(C(c2ccccc2)N(C)c2nc(C(=O)Nc3cnoc3)c(O)c(=O)n2C)cn1 (single isomer, unassigned) [Example 43]
> 7.00	> 6.00	–	5.00 to 6.00	Cc1cccc(Cl)c1C(c1ccccn1)N(C)c1nc(C(=O)Nc2cnoc2)c(O)c(=O)n1C (single isomer, unassigned) [Example 63]
> 7.00	> 6.00	> 6.00	–	CN(c1nc(C(=O)Nc2cnoc2)c(O)c(=O)n1C)C(c1ccccc1)c1ccccc1Cl (single isomer, unassigned) [Example 39]
> 7.00	> 6.00	–	> 6.00	CC(c1c(Cl)cccc1Cl)N(C)c1nc(C(=O)Nc2cnoc2)c(O)c(=O)n1C (single isomer, unassigned) [Example 71]
> 7.00	> 6.00	> 6.00	–	CN(c1nc(C(=O)Nc2cnoc2)c(O)c(=O)n1C)C(c1cccc(C#N)c1)c1ccccc1Cl (single isomer, unassigned) [Example 95]
> 7.00	5.00 to 6.00	4.00 to 5.00	–	CCN(Cc1ccccc1)c1nc(C(=O)Nc2cnoc2)c(O)c(=O)n1C [Example 13, 2-(benzyl(ethyl)amino)-5-hydroxy-N-(isoxazol-4-yl)-1-methyl-6-oxo-1,6-dihydropyrimidine-4-carboxamide]
6.00 to 7.00	4.00 to 5.00	–	–	CN(C)C(=O)c1cccc(CN(C)c2nc(C(=O)Nc3cnoc3)c(O)c(=O)n2C)c1 [Example 77]
6.00 to 7.00	4.00 to 5.00	–	–	CN(CCc1ccccc1)c1nc(C(=O)Nc2cnoc2)c(O)c(=O)n1C [Example 3]
6.00 to 7.00	5.00 to 6.00	–	–	CN(Cc1cccnc1-c1cccc(Cl)c1)c1nc(C(=O)Nc2cnoc2)c(O)c(=O)n1C [Example 20]
6.00 to 7.00	4.00 to 5.00	–	–	CN(Cc1ccc(C(F)(F)F)cc1)c1nc(C(=O)Nc2cnoc2)c(O)c(=O)n1C [Example 12]
6.00 to 7.00	4.00 to 5.00	–	–	CN(C)C(=O)c1ccccc1CN(C)c1nc(C(=O)Nc2cnoc2)c(O)c(=O)n1C [Example 75]
6.00 to 7.00	4.00 to 5.00	–	–	CN1CCC(C(c2ccccc2)N(C)c2nc(C(=O)Nc3cnoc3)c(O)c(=O)n2C)CC1 (stereo not drawn) [Example 49]
> 7.00	5.00 to 6.00	–	–	CN(Cc1ccccc1-c1cccc(Cl)c1)c1nc(C(=O)Nc2cnoc2)c(O)c(=O)n1C [Example 17]
6.00 to 7.00	4.00 to 5.00	–	–	CN(Cc1cncnc1)c1nc(C(=O)Nc2cnoc2)c(O)c(=O)n1C [Example 34]
6.00 to 7.00	5.00 to 6.00	–	–	Cc1csc(CN(C)c2nc(C(=O)Nc3cnoc3)c(O)c(=O)n2C)n1 [Example 38]
6.00 to 7.00	4.00 to 5.00	–	–	CC(=O)N1CCC(N(C)c2nc(C(=O)Nc3cnoc3)c(O)c(=O)n2C)CC1 [Example 73]
6.00 to 7.00	4.00 to 5.00	–	–	CN(Cc1cnn(C)c1)c1nc(C(=O)Nc2cnoc2)c(O)c(=O)n1C [Example 33]
6.00 to 7.00	4.00 to 5.00	–	–	CN(Cc1ccncc1)c1nc(C(=O)Nc2cnoc2)c(O)c(=O)n1C [Example 37]
6.00 to 7.00	4.00 to 5.00	–	–	CN(C)C(=O)c1ccc(CN(C)c2nc(C(=O)Nc3cnoc3)c(O)c(=O)n2C)cc1 [Example 76]
< 5.00	< 4.00	–	–	Cc1ncc(C(c2ccccc2Cl)N(C)c2nc(C(=O)Nc3cnoc3)c(O)c(=O)n2C)cn1 (single isomer, unassigned) [Example 82]
